Source: patent US20060129225A1, “Device for the delivery of a cardioprotective agent to ischemic reperfused myocardium” (priority 2004, published 2006)

Assays:
[1] = Liquid formulations with Vitamin E TPGS, ethanol and water (HPLC assay, visual observation); assay type: physicochemical; details: ethanol less than two percent, water
[2] = test system: human coronary artery smooth muscle cells; assay: Anti-proliferative activity in synchronized cultured human coronary artery smooth muscle cells stimulated with two percent fetal bovine serum; assay type: cell-based
Excerpt: (§1) The multiple curves represent various concentrations of topotecan ranging from zero to three hundred nanomolar concentrations.
(§2) The multiple curves represent various concentrations of etoposide ranging from zero to eight hundred nanomolar concentrations.
The multiple curves represent various concentrations of Panzem® ranging from zero to 100 micromolar concentrations.

[3] = test system: human coronary artery smooth muscle cell survival; assay: MTS cytotoxicity assay; assay type: cell-based; details: concentrations up to 30,000.00 nanomolar (tested from 6.6 nanomolar)
Excerpt: Typically, a control is utilized to determine baseline toxicity.

[4] = test system: human smooth muscle cells; assay: PDGF AB-stimulated proliferation of human smooth muscle cells (cell count, day six); assay type: cell-based; details: from the IC50 values
Description: To assess the ability of cladribine to prevent cell proliferation, human smooth muscle or endothelial cells (Clonetics, Walkersville, Md.) were seeded at a density of 2000 cells/cm^2 (approximately 3600 cells/well) into each well of 12-well plates and cultured with 1.5 ml of growth medium containing five percent fetal calf serum (FCS). After twenty-four hours, the growth medium was changed and fresh medium containing 10 ng/ml platelet-derived growth factor AB (PDGF AB; LIFE Technologies), as well as various concentrations of cladribine (0.001-10,000 nM) were added with triplicate wells. Medium was replaced with fresh cladribine-containing medium after three days. On day six, cells were detached by trypsinization to yield a cell suspension, lightly centrifuged to pellet and then counted manually using a Neubauer hemocytometer system. Cell viability was assessed by trypan blue exclusion.

[5] = In vivo release kinetics from polymeric stent coatings in porcine pharmacokinetics studies
[6] = test system: human coronary artery smooth muscle cells; assay: Anti-proliferative activity in non-synchronized cultured human coronary artery smooth muscle cells stimulated with two percent fetal bovine serum; assay type: cell-based
Excerpt: The multiple curves represent various concentrations of mycophenolic acid ranging from zero to one thousand nanomolar concentrations.
FIG. 58 illustrates, in graphical format, the anti-proliferative activity of cladribine in non-synchronized cultured human coronary artery smooth muscle cells stimulated with two percent fetal bovine serum.
The multiple curves represent various concentrations of cladribine ranging from zero to nine hundred nanomolar concentrations.

cell viability = assay: Cell viability assay; assay type: cell-based
Excerpt: as §1, §2

tumor cell lines = details: cited from earlier work
[7] = test system: human coronary artery smooth muscle cell proliferation; assay: In vitro cell culture study of coronary artery smooth muscle cell proliferation; assay type: cell-based
Excerpt: FIG. 51 is a graph of the inhibition of coronary artery smooth muscle cells by trichostatin A in a cell culture study.

CO[C@H]1C[C@@H]2CC[C@@H](C)[C@@](O)(O2)C(=O)C(=O)N2CCCC[C@H]2C(=O)O[C@H]([C@H](C)C[C@@H]2CC[C@@H](OC(=O)C(C)(CO)CO)[C@H](OC)C2)CC(=O)[C@H](C)/C=C(\C)[C@@H](O)[C@@H](OC)C(=O)[C@H](C)C[C@H](C)/C=C/C=C/C=C/1C [CCI-779]
concentration of CCI-779 in the final solution (HPLC assay) [1]: 15 mg/mi

COc1cc2c(cc1O)CC[C@@H]1[C@@H]2CC[C@]2(C)[C@@H](O)CC[C@@H]12 [Panzem®, 2-methoxyestradiol]
effect of addition to cells treated with rapamycin on percent of inhibition ([2]; Panzem 0.813 to 100 micromolar): increases the percent of inhibition of rapamycin alone
inhibition of human coronary artery smooth muscle cell proliferation in vitro ([2]; Panzem alone, synchronized cells): extremely effective inhibitor
human coronary artery smooth muscle cell survival (MTS assay) [3]: do not reduce

Nc1nc(Cl)nc2c1ncn2[C@H]1C[C@H](O)[C@@H](CO)O1 [cladribine, 2-chlorodeoxyadenosine]
potency as inhibitor of smooth muscle cells relative to endothelial cells [4]: approximately twice
in vivo elution compared with rapamycin ([5]; EVA/BMA basecoat with rapamycin and cladribine, 200 μg BMA topcoat, Bx Velocity stents, Yorkshire pigs): elutes more rapidly than rapamycin
in vivo elution from coating over time ([5]; PVDF/HFP (85/15) basecoat 1800 μg with thirty percent cladribine, 300 μg topcoat, Bx Velocity stents, Yorkshire pig, after the first day): levels off significantly
effect of addition to cells treated with rapamycin on percent inhibition ([6]; cladribine 56.25 to 900 nanomolar): increases the percent inhibition of rapamycin alone
inhibition of human coronary artery smooth muscle cell proliferation ([6]; non-synchronized cells, two percent fetal bovine serum): completely inhibits

COc1cc([C@@H]2c3cc4c(cc3[C@@H](O[C@@H]3O[C@@H]5CO[C@@H](C)O[C@H]5[C@H](O)[C@H]3O)[C@H]3COC(=O)[C@H]23)OCO4)cc(OC)c1O [etoposide]
cytotoxicity in a cell viability assay (cell viability; concentrations up to ten micromolar): non-cytotoxic
effect of addition to cells treated with rapamycin on percent inhibition ([2]; etoposide 255.7 to eight hundred nanomolar): increases the percent inhibition of rapamycin alone

COc1c(C)c2c(c(O)c1C/C=C(\C)CCC(=O)O)C(=O)OC2 [mycophenolic acid]
in vivo release from coating compared with rapamycin ([5]; EVA/BMA basecoat with 180 μg rapamycin and 180 μg mycophenolic acid, no, 100 or 200 μg BMA topcoat, porcine): elutes more completely over a shorter duration than the rapamycin
effect on the anti-proliferative rapamycin dose response curve ([6]; mycophenolic acid zero to one thousand nanomolar added to cells treated with rapamycin): potentiates the anti-proliferative activity of rapamycin

CO[C@H]1C[C@@H]2CC[C@@H](C)[C@@](O)(O2)C(=O)C(=O)N2CCCC[C@H]2C(=O)O[C@H]([C@H](C)C[C@@H]2CC[C@@H](O)[C@H](OC)C2)CC(=O)[C@H](C)/C=C(\C)[C@@H](O)[C@@H](OC)C(=O)[C@H](C)C[C@H](C)/C=C/C=C/C=C/1C [rapamycin]
in vivo release rate compared with mycophenolic acid ([5]; PVDF basecoat six hundred micrograms, PVDF topcoat two hundred micrograms, porcine): slower release rate than that of mycophenolic acid

CC[C@@]1(O)C(=O)OCc2c1cc1n(c2=O)Cc2cc3c(CN(C)C)c(O)ccc3nc2-1 [topotecan]
cytotoxicity in a separate cell viability assay (cell viability; concentrations up to one micromolar): non-cytotoxic
effect of addition to cells treated with rapamycin on percent inhibition ([2]; topotecan 18.8 to 300 nanomolar): increases the percent inhibition of rapamycin alone

CC(/C=C/C(=O)NO)=C\[C@@H](C)C(=O)c1ccc(N(C)C)cc1 [trichostatin A]
anti-proliferative IC50 (tumor cell lines): low nM range
IC50 ([7]; human coronary artery smooth muscle cells, read-out: anti-proliferative IC50): ~6 nM
inhibition of human coronary artery smooth muscle cell proliferation ([7]; in vitro cell culture): completely inhibit
